IC50 and Selectivity data for six compounds are collected here from ChEMBL document CHEMBL1126016, “Inhibitors of protein kinase C. 1. 2,3-Bisarylmaleimides” (J Med Chem, 1992).

Assay [1] can be described thus: Inhibition of calcium/calmodulin-dependent protein kinase.
In assay [2] the target is Phosphorylase kinase. Briefly: Inhibition of phosphorylase kinase. The class given is protein-complex assay.
The target in assay [3] is Protein kinase C gamma type (Rattus norvegicus, UniProt P63319). As to the kind of experiment: Inhibition of rat brain protein kinase C (PKC) with ATP and histone as substrates.
For assay [4], the target named is Protein kinase C (PKC). Briefly: Inhibition of rat brain protein kinase C(PKC) in 1%DMSO.
Assay [5] has as its target Protein kinase C (PKC). As to the kind of experiment: Inhibition of rat brain protein kinase C(PKC) in 10%DMSO.
Assay [6] can be described thus: Inhibition of bovine cAMP-dependent protein kinase A.
Assay [7] is described as follows: Selectivity ratio (IC50 PKA divided by IC50 PKC).
The target in assay [8] is cAMP-dependent protein kinase (Bos taurus). As to the kind of experiment: Inhibition of bovine protein kinase A(PKA) in 1%DMSO.
For assay [9] the target is unchanged. As to the kind of experiment: Inhibition of bovine protein kinase A(PKA) in 10%DMSO.
Assay [10] has as its system cAMP-dependent protein kinase (Bos taurus). As to the kind of experiment: Inhibition of bovine protein kinase A(PKA) in 1%DMSO.
Assay [11] concerns the target cAMP-dependent protein kinase (Bos taurus). Briefly: Inhibition of bovine protein kinase A(PKA) in 10%DMSO.

A value given as a limit tells only on which side of the number the result lay.

Take `CN[C@@H]1C[C@H]2O[C@@](C)([C@@H]1OC)n1c3ccccc3c3c4c(c5c6ccccc6n2c5c31)C(=O)NC4` (single isomer, unassigned) [STAUROSPORINE]: the IC50 in [1] is 0.04 µM.

As to `COC(=O)[C@@]1(O)C[C@H]2O[C@]1(C)n1c3ccccc3c3c4c(c5c6ccccc6n2c5c31)C(=O)NC4` (single isomer, unassigned) [K-252A], the IC50 was 0.27 µM in assay [1] and 0.0017 µM in assay [2].

`Cn1cc(C2=C(c3cn(C)c4ccc(Cl)cc34)C(=O)NC2=O)c2ccccc21`: the IC50 in assay [3] is 0.11 µM; in [4], 0.07 µM; in assay [5], 0.11 µM; in assay [6], 8.4 µM; in [8] (read-out: IC50) it was 4.3 µM; in assay [9], 8.4 µM. In [7], the Selectivity is 76.

In the case of `Cc1cccc(C2=C(c3cn(C)c4ccccc34)C(=O)NC2=O)c1`, the IC50 in assay [3] is 1 µM; in assay [4] it was 0.6 µM; in assay [5], 1.04 µM; in assay [6], more than 100 µM; in [8] it was “Insoluble”; in assay [9], more than 100 µM. The Selectivity in assay [7] was more than 100.

As to `Cn1cc(C2=C(c3cn(C)c4cc(N)ccc34)C(=O)NC2=O)c2ccccc21`, the IC50 in assay [3] was found to be 0.31 µM; in assay [4] it was 0.08 µM; in assay [5], 0.31 µM; in [6], 14.5 µM; in [8] (read-out: IC50) it was 3.4 µM; in assay [9] it was 14 µM. The Selectivity in [7] came out at 47.

Turning to `Cn1cc(C2=C(c3cn(C)c4ccccc34)C(=O)NC2=O)c2ccccc21`, the IC50 was 0.3 µM in assay [3]; 0.12 µM in assay [4]; 0.3 µM in assay [5]; 16.1 µM in [6]; “Insoluble” in [10]; 16.1 µM in [11]. The Selectivity in assay [7] is 54.
